What was measured:
[1] = RP-HPLC temperature profiling (peptide self-association); type: physicochemical; settings: RP-HPLC temperature profiling 5 to 80 °C in 5 °C increments; maximal retention time difference normalised to control peptide C; Zorbax 300 SB-C8
Experimental: Figure 2 Peptide self-association ability during RP-HPLC temperature profiling. The retention behavior of the peptides was normalized to that of the random coil peptide C through the expression (tR^t − tR^5 for peptide analogs) minus (tR^t − tR^5 for control peptide C), where tR^t is the retention time at a specific temperature of the anticancer peptides or the random coil peptide, and tR^5 is the retention time at 5 °C.
We utilized the RP-HPLC temperature profiling technique to determine the peptide self-association ability in aqueous solution which we believe is a very important parameter to understand anticancer activity. When the self-association ability of a peptide is too strong in aqueous solution, it could decrease the ability of the peptide to dissociate and penetrate into membranes to kill target cells. […] The curves were normalized with the control peptide C which is a monomeric random coil peptide in both aqueous and hydrophobic media, showing only the general temperature effects. The peptide self-association parameter (PA) is the maximum change in peptide retention time relative to the control peptide C, to quantify the self-association ability of peptides in solution. The details of how to determine peptide self-association parameter were reported previously. […]
Peptide samples were analyzed on a Shimadzu LC-20A HPLC column. […]

human red blood cells = type: cell-based; settings: red cells of human, 1 h
Experimental: Peptide samples were serially diluted by PBS in 96-well plates (round bottom) to give a volume of 70 μL sample solution in each well. Human erythrocytes anticoagulated by EDTAK2 were collected by centrifugation (1000 rpm) for 5 min, and washed twice by PBS, then diluted to a concentration of 2% in PBS. 70 μL of 2% erythrocytes were added to each well to give a final concentration of 1% human erythrocytes in each well and plates were incubated at 37 °C for 1 h. The plates were then centrifuged for 10 min at 3,000 rpm and supernatant (90 μL) was transferred to a 96-well plate (flat bottom). The release of hemoglobin was determined by measuring the absorbance of the supernatant at 540 nm. The hemolytic activity was determined as the minimal peptide concentration that caused hemolysis (minimal hemolytic concentration, MHC). Erythrocytes in PBS and distilled water were used as control of 0% and 100% hemolysis, respectively.

[2] = Circular dichroism spectroscopy (helicity); type: physicochemical; settings: for [θ]222 Benign / [θ]222 SDS in Buffer / [θ]222 50%TFE: CD, 222 nm, 75 μM peptide; for [θ]222 Benign / [θ]222 SDS in Buffer / [θ]222 50%TFE / % Helix SDS in Buffer / % Helix 50%TFE: 25 °C; for [θ]222 Benign: KP buffer (100 mM KCl, 50 mM KH2PO4/K2HPO4, pH 7.4); for [θ]222 SDS in Buffer / % Helix SDS in Buffer: KP buffer with 10 mM SDS; for [θ]222 50%TFE / % Helix 50%TFE: KP buffer with 50% TFE; for % Helix Benign / % Helix SDS in Buffer / % Helix 50%TFE: relative to molar ellipticity of PMW in 50% TFE; for % Helix Benign: KP buffer pH 7.4, 25 °C
Experimental: Peptide secondary structure was measured by CD spectroscopy on a Jasco-810 spectropolarimeter under mild buffer conditions (50 mM KH2PO4/K2HPO4, and 100 mM KCl, pH 7), in 50% TFE and under mild buffer conditions with 10 mM SDS to mimic the hydrophobic environment of the cell membrane (Figure 1 and Table 2). All peptide analogs show negligible helical structures with molar ellipticity values ranging from −5900 to −7800 under mild conditions. In contrast, all peptide analogs were induced into highly helical structures with molar ellipticity values ranging from −24,300 to −31,700 in the hydrophobic environment of 50% TFE and molar ellipticity values ranging from −17,800 to −27,300 in the hydrophobic buffer environment in the presence of 10 mM SDS. […] It is obvious that the tryptophan residue played an important role in stabilizing the helical structure at the N-terminus or in the middle position of the peptide sequence.
Circular dichroism (CD) spectra were acquired with a 0.02 cm path length quartz cuvette on a Jasco J-810 spectropolarimeter (Jasco, Easton, MD, USA) at 25 °C as described previously. The concentration of 75 μM peptides was measured in benign buffer (50 mM KH2PO4/K2HPO4, and 100 mM KCl (pH 7.4)), benign buffer with 50% TFE and benign buffer with 10 mM SDS at 25 °C. The mean residue molar ellipticities were calculated by the equation [θ] = θ/10lCMn and θ is the ellipticity in millidegrees, l is the optical path length of the cuvette in centimeters, CM is the peptide concentration in mole/liter, and n is the number of residues in the peptide. The values of mean residue molar ellipticities of the peptide analogs at 222 nm were used to determine the relative helicity of the peptides.

[3] = RP-HPLC retention time (relative hydrophobicity); type: physicochemical; settings: measure of relative hydrophobicity, Zorbax 300 SB-C8 150 × 4.6 mm, linear AB gradient 1% acetonitrile/min, 0.1% TFA, 1 mL/min
Experimental: The relative hydrophobicity of the peptides was determined by measuring their RP-HPLC retention times at 25 °C. The retention times of peptides are highly sensitive to the helicity of peptides upon the interaction between the peptide with the hydrophobic environment of the column matrix. From Table 2, the relative hydrophobicity of peptide analogs is in the order PCW < PMW < PNW. […] It is well known that the chromatography conditions characteristic of RP-HPLC (hydrophobic stationary phase, non-polar eluting solvent) induce helical structures in potentially helical peptides in a manner similar to that of the helix-inducing solvent trifloroethanol (TFE).
Peptide samples were analyzed on a Shimadzu LC-20A HPLC column. Runs were performed on a Zorbax 300 SB-C8 column (150 × 4.6 mm ID, 5 μm particle size, 300Å pore size) from Agilent Technologies, using a linear AB gradient (1% acetonitrile/min) and a flow rate of 1 mL/min, in which eluent A was 0.1% aqueous TFA in water and eluent B was 0.1% TFA in acetonitrile. Temperature profiling analyses during RP-HPLC were performed in 5 °C increments, from 5 °C to 80 °C, as described previously.

[4] = Isothermal titration calorimetry with DMPS LUVs; type: binding; settings: ITC, 25 °C, 10 mM HEPES, 150 mM NaCl pH 7.0
Experimental: To mimic cancer cell and normal cell membranes, desired phospholipid powders were mixtured under certain ratios. Phospholipid mixtures were dissolved in chloroform, dried by N2 flow, and then vacuumed overnight to remove the trace of organic solvents. The lipids were hydrated in 10 mM HEPES and 150 mM NaCl buffer (pH 7.4) and extensively vortexed above the phase-transition temperature of phospholipid, obtaining multilamellar large vesicles (MLVs). To obtain large unilamellar vesicles (LUVs), the MLVs was exposed to five freeze-thaw cycles and pass 21 times through two polycarbonate membrane (0.1 μm) with a mini-extruder above the phase-transition temperature of phospholipids. The phospholipid concentrations were determined by phosphorus analysis.
The affinity of peptides with LUV liposomes were detected by a Nano ITC2G isothermal titration calorimeter (TA Instrument Corp., New Castle, DE, USA) at 25 °C, under HEPES buffer condition (10 mM HEPES, and 150 mM NaCl (pH 7.0)). To avoid air bubbles, peptides and LUV solutions were degassed under vacuum 500 mmHg, for 14 min before using. […]

[5] = Isothermal titration calorimetry with DMPC LUVs; type: binding; settings: ITC, 25 °C
Experimental: The interaction of the peptides PNW and PCW with phospholipids was investigated using ITC at 25 °C, in which DMPC or DMPS LUVs were injected into an ITC cell containing peptide solutions of PNW or PCW. Based on the tryptophan fluorescence and quenching experiments, PNW and PCW could cover the trend of peptide-membrane interaction, thus, PMW was not included in the liposome experiments. The interaction of peptides with phospholipid bilayer membrane is entropy-driven. […] It is clear to see that the endothermic heat flow decreased with the increase of the number of injections and the free peptide concentration in the cell decreased simultaneously. The endothermic binding reaction of peptide PNW ceased after 20 injections, when all of peptide in bulk bound to DMPC LUVs (Figure 4A) and the further addition of DMPC LUVs caused dilution heat. However, the endothermic binding reaction of PCW ceased after 22 injections.
To mimic cancer cell and normal cell membranes, desired phospholipid powders were mixtured under certain ratios. Phospholipid mixtures were dissolved in chloroform, dried by N2 flow, and then vacuumed overnight to remove the trace of organic solvents. […] The phospholipid concentrations were determined by phosphorus analysis. […]

HeLa cells = type: cell-based, Human; settings: 1 h
Experimental: The MTT assay has been used to test cytotoxicity of reagents and cell viability. Human cervix carcinoma cells (HeLa cells) were seeded in 96-well plates and incubated with serially 2-fold diluted concentration of different peptides (μM) for 1 h at 37 °C. As a negative control, cells were cultured without addition of the peptides. Thereafter, 20 μL of 5 mg/mL MTT solution in PBS were added to cells and treated for 4 h at 37 °C. The formazan crystals were dissolved by adding 150 μL dimethyl sulfoxide (DMSO) just before spectrometric determination. The absorbance was determined at 490 nm. The results were expressed as IC50, representing the concentration at which cell ability was reduced by 50%. The cytotoxicity assays were repeated in triplicates.

Row | SMILES | PA (association parameter) [1] [min] | MHC (minimal hemolytic concentration) (human red blood cells) [µM] | [θ]222 Benign [2] [degree cm^2 dmol^−1] | [θ]222 SDS in Buffer [2] | [θ]222 50%TFE [2] [degree.cm^2.dmol^−1] | % Helix Benign [2] [%] | % Helix SDS in Buffer [2] [%] | % Helix 50%TFE [2] [%] | tR (retention time at 25 °C by RP-HPLC) [3] [min] | Ka (affinity constant) [4] | affinity constant Ka to DMPC LUVs [5] [M⁻¹] | Ka (affinity constant) ([5]; 10 mM HEPES, 150 mM NaCl pH 7.0) | IC50 (HeLa cells) [nM]
1 | CC[C@H](C)[C@H](NC(=O)[C@H](CCCCN)NC(C)=O)C(=O)N[C@@H](CCCCN)C(=O)N[C@@H](CO)C(=O)N[C@@H](Cc1ccccc1)C(=O)N[C@@H](CC(C)C)C(=O)N[C@@H](CCCCN)C(=O)N[C@H](C(=O)N[C@@H](Cc1ccccc1)C(=O)N[C@@H](CCCCN)C(=O)N[C@@H](CO)C(=O)N[C@@H](CC(C)C)C(=O)N[C@@H](CCCCN)C(=O)N[C@@H](CCCCN)C(=O)N[C@H](C(=O)N[C@H](C(=O)N[C@@H](CC(C)C)C(=O)N[C@@H](Cc1c[nH]cn1)C(=O)N[C@H](C(=O)N[C@@H](CC(C)C)C(=O)N[C@@H](CC(C)C)C(=O)N[C@@H](CCCCN)C(=O)N[C@@H](C)C(=O)N[C@@H](Cc1c[nH]c2ccccc12)C(=O)N[C@@H](CO)C(=O)N[C@@H](CO)C(N)=O)[C@@H](C)O)C(C)C)[C@@H](C)O)[C@@H](C)O [PCW] | 4.5 | 10.41 ± 0.01 | −5900 | −17,800 degree cm^2 dmol^−1 | −24300 | 18 | 56 | 76 | 45.6 | 17.70 [M]^−1× 10^3 | 4150 | 4.15 [M]^−1× 10^3 | 2330 ± 120
2 | CC[C@H](C)[C@H](NC(=O)[C@H](C)NC(=O)[C@H](CCCCN)NC(=O)[C@H](CC(C)C)NC(=O)[C@H](CC(C)C)NC(=O)[C@@H](NC(=O)[C@H](Cc1c[nH]cn1)NC(=O)[C@H](CC(C)C)NC(=O)[C@@H](NC(=O)[C@@H](NC(=O)[C@H](CCCCN)NC(=O)[C@H](CCCCN)NC(=O)[C@H](Cc1c[nH]c2ccccc12)NC(=O)[C@H](CO)NC(=O)[C@H](CCCCN)NC(=O)[C@H](Cc1ccccc1)NC(=O)[C@@H](NC(=O)[C@H](CCCCN)NC(=O)[C@H](CC(C)C)NC(=O)[C@H](Cc1ccccc1)NC(=O)[C@H](CO)NC(=O)[C@H](CCCCN)NC(=O)[C@@H](NC(=O)[C@H](CCCCN)NC(C)=O)[C@@H](C)CC)[C@@H](C)O)[C@@H](C)O)C(C)C)[C@@H](C)O)C(=O)N[C@@H](CO)C(=O)N[C@@H](CO)C(N)=O [PMW] | 5.3 | 10.41 ± 0.01 | −7400 | −25,050 degree cm^2 dmol^−1 | −31900 | 23 | 79 | 100 | 46.5 | – | – | – | 2470 ± 180

— PMC6271632, “Tryptophan as a Probe to Study the Anticancer Mechanism of Action and Specificity of α-Helical Anticancer Peptides” (Molecules, 2014)
